This passage reports IC50, Activity and inhibition results from ChEMBL document CHEMBL5523710 (Eur J Med Chem, 2024).

Experiment [1] has as its system Jurkat. The experiment can be described thus: Cytotoxicity against human Jurkat cells measured for 72 hrs by celltiter-glo assay.
The test system of experiment [2] is HL-60. In words: Cytotoxicity against human HL-60 cells measured for 72 hrs by celltiter-glo assay. To be noted: HL-60, 72 h. On the technique in general: ATP-based viability assays read luminescence as a measure of living cells.
Experiment [3] relates to HAL-01. In words: Cytotoxicity against human HAL-01 cells measured for 72 hrs by celltiter-glo assay. Conditions: HAL-01, 72 h.
The target in experiment [4] is Histone deacetylase 1 (Homo sapiens, UniProt Q13547). In words: Inhibition of C-terminal his/FLAG-tagged full length human recombinant HDAC1 (1 to 482 residues) expressed in Sf9 insect cells using ZMAL-(Z-Lys(Ac)-AMC as substrate measured for 90 mins by microplate reader analysis.
For experiment [5], the target named is Histone deacetylase 2 (Homo sapiens, UniProt Q92769). In words: biochemical. The class given is cell-based, Sf9.
Description: Inhibition of C-terminal FLAG-tagged human recombinant HDAC2 (1 to 488 residues) expressed in Sf9 insect cells using ZMAL-(Z-Lys(Ac)-AMC as substrate measured for 90 mins by microplate reader analysis
For experiment [6], the system named is HAL-01. The experiment can be described thus: Synergistic cytotoxicity against human HAL-01 cells measured after 72 hrs in presence of decitabine by celltiter-glo assay. The class given is functional, cell-based.
In experiment [7] the target is Histone deacetylase 3/Nuclear receptor corepressor 2 (HDAC3/NCoR2) (Homo sapiens, UniProt O15379). The experiment can be described thus: Inhibition of C-terminal his-tagged human recombinant HDAC3 (1 to 428 residues)/N-terminal GST-tagged human recombinant NCOR2 (395 to 489 residues) expressed in Sf9 insect cells using ZMAL-(Z-Lys(Ac)-AMC as substrate measured for 90 mins by microplate reader analysis.

Experiment [8] relates to Jurkat. The experiment can be described thus: Synergistic cytotoxicity against human Jurkat cells measured after 72 hrs in presence of decitabine by celltiter-glo assay. The format is functional, cell-based.
In experiment [9] the test system is HL-60. To be noted: Homo sapiens, dose 24.0 nM, time 24.0 hrs.
Experiment [10] relates to HL-60. The experiment can be described thus: Induction of apoptosis in human HL-60 cells assessed as viable cells at 1 to 5 uM measured for 48 hrs by Annexin/PI staining based analysis. The class given is functional. Conditions: dose 1-5 µM.
For experiment [11], the system named is HL-60. In words: Induction of apoptosis in human HL-60 cells assessed as increase in late apoptotic cells at 1 to 5 uM measured for 48 hrs by Annexin/PI staining based analysis. The format is functional, cell-based. Conditions: dose 1-5 µM.
Experiment [12] relates to HL-60. The experiment can be described thus: Induction of apoptosis in human HL-60 cells assessed as increase in early apoptotic cells at 1 to 5 uM measured for 48 hrs by Annexin/PI staining based analysis. The class given is functional, cell-based. Conditions: dose 1-5 µM.
Experiment [13] relates to MOLM-13. The experiment can be described thus: Synergistic cytotoxicity against human MOLM-13 cells measured after 72 hrs in presence of decitabine by celltiter-glo assay. The class given is functional, cell-based.
Experiment [14] concerns HL-60. The experiment can be described thus: Induction of apoptosis in human HL-60 cells assessed as increase in dead cells at 1 to 5 uM measured for 48 hrs by Annexin/PI staining based analysis. The format is functional, cell-based. To be noted: dose 1-5 µM.
Experiment [15] concerns HL-60. To be noted: Homo sapiens, dose 24.0 nM, time 24.0 hrs. This is another data set of the same source.

Active and inactive are the calls of the source. The calls are words filed in the database; no cut-off is given here.

Sequence of Histone deacetylase 2 (Q92769 whole entry): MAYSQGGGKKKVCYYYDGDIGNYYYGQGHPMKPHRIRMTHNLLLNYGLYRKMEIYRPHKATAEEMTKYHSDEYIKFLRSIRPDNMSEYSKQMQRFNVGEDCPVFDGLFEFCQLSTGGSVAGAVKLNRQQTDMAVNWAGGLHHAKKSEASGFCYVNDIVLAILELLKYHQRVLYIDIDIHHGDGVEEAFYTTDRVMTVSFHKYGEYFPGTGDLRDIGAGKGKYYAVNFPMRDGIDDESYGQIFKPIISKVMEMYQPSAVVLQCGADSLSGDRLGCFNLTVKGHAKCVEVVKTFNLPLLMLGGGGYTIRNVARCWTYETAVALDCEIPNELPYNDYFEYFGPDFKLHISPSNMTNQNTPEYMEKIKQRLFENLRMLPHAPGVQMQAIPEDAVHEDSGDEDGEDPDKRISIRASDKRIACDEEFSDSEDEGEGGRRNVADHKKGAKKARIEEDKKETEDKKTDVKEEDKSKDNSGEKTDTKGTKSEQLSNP
Sequence of Histone deacetylase 3/Nuclear receptor corepressor 2 (HDAC3/NCoR2) (O15379 whole entry, the tested form may be a part): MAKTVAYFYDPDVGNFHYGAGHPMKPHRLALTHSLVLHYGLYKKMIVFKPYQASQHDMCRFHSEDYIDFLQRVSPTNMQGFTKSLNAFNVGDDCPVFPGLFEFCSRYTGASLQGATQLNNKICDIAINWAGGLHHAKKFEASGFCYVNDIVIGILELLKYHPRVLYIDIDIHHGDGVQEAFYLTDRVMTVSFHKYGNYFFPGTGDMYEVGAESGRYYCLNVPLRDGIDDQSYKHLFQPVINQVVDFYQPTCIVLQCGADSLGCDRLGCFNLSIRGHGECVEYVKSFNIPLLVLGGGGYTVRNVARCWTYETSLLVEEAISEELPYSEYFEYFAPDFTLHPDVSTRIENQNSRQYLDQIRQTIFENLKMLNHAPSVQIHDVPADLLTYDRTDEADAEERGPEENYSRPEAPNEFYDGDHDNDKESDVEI
Sequence of Histone deacetylase 3/Nuclear receptor corepressor 2 (HDAC3/NCoR2) (Q9Y618 whole entry, further chain, the tested form may be a part): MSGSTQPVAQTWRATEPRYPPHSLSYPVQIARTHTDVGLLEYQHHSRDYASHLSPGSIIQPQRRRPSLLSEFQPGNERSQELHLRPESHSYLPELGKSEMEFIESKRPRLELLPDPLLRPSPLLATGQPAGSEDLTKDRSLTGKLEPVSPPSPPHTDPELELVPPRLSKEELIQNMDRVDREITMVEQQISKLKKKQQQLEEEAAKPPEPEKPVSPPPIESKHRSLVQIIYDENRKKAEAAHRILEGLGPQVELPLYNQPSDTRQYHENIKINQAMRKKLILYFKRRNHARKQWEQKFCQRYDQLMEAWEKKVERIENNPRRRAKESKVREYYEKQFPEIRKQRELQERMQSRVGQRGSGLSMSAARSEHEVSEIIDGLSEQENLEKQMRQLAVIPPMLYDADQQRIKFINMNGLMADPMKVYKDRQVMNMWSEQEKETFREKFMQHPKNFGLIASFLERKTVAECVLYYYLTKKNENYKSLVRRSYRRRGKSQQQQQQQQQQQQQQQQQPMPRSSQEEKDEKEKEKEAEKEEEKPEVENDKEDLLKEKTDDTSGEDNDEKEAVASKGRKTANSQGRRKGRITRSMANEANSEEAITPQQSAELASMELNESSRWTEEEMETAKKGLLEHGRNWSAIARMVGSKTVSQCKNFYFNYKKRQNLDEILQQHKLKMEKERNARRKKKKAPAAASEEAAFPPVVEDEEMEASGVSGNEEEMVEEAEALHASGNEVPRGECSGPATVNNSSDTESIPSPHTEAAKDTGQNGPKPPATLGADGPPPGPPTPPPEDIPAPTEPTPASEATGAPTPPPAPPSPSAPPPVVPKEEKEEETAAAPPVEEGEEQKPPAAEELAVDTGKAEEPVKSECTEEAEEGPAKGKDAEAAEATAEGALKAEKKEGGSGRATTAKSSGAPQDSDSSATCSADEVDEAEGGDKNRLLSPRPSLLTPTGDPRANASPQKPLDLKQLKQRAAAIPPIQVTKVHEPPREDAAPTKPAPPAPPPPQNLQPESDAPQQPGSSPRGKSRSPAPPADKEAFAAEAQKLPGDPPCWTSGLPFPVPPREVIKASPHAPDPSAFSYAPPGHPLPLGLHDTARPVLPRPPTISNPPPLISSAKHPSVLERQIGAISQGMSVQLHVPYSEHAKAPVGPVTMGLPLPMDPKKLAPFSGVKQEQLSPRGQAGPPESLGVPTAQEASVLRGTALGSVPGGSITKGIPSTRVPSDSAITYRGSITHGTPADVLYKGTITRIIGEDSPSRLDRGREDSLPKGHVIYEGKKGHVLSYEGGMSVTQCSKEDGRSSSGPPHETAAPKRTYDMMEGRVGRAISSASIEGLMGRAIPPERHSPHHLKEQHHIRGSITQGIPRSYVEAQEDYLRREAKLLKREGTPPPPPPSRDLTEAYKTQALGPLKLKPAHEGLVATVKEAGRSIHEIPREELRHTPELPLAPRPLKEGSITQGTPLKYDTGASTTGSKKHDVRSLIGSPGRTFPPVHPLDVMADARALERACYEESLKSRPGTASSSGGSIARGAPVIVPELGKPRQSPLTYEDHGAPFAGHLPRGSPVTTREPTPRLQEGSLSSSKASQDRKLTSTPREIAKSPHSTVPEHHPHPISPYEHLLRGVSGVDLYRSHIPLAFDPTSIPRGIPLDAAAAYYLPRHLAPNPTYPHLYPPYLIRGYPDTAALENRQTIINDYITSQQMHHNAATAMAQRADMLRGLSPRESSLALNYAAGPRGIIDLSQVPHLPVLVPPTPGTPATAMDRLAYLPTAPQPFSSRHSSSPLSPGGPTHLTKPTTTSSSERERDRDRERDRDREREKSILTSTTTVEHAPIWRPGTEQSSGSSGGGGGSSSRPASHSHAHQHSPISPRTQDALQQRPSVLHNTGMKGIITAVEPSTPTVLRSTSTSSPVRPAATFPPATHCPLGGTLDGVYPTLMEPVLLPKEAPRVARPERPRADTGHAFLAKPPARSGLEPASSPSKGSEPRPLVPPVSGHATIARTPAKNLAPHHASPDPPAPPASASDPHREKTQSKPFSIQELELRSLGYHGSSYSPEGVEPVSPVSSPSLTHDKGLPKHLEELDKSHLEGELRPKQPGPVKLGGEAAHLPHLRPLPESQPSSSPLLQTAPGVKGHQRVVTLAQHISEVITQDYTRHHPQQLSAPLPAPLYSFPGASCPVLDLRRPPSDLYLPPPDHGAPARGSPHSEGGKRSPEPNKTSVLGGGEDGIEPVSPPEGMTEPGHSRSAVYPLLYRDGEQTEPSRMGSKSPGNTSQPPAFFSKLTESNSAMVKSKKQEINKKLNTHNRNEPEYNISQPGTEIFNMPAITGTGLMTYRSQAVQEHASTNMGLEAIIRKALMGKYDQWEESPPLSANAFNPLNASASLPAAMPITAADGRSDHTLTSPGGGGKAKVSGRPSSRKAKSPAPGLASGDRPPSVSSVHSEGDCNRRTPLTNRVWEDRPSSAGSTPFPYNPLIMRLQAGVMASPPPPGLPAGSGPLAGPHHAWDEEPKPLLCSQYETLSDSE
Sequence of Histone deacetylase 1 (Q13547 whole entry, the tested form may be a part): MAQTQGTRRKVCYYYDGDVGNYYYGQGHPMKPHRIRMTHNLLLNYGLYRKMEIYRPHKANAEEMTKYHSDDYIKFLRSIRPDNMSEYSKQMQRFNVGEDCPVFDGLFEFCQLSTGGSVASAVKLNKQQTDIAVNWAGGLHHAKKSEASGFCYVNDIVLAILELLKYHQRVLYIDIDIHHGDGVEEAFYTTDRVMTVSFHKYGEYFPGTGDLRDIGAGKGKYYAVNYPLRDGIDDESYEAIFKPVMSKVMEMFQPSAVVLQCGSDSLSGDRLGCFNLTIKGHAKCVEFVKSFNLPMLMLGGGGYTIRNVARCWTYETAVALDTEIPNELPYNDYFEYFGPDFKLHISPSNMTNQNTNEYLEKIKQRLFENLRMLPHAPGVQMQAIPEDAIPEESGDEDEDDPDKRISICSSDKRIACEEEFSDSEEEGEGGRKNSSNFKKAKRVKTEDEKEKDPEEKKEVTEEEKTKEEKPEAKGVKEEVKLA

What is called IC50 is the concentration at which inhibition is half-maximal. Consider `O=C(CN(C(=O)Cc1ccc(C(=O)NO)cc1F)c1ccccc1)NC1CCCCC1`, for which the figures for the IC50 in experiment [1], in experiment [2] and in [3] were 2420 nM, 1340 nM and 2080 nM, respectively.
As to `CC(C)(C)NC(=O)CN(C(=O)Cc1ccc(C(=O)NO)cc1)c1ccccc1`, the IC50 stood at 8310 nM in [1], 5990 nM in experiment [2] and 4910 nM in experiment [3].
As for `O=C(CN(C(=O)Cc1ccc(C(=O)NO)cc1)c1ccccc1)NCc1ccccc1`, the IC50 was found to be 2290 nM in [1], 2310 nM in experiment [2], 283 nM in experiment [4] and 2150 nM in experiment [3].
For `O=C(CN(C(=O)Cc1ccc(C(=O)NO)cc1F)c1ccccc1C(F)(F)F)NC1CCCCC1`, the IC50 in [1] was found to be 2280 nM; in experiment [2] it was 1610 nM; in [3], 1790 nM.
`Cc1ccccc1N(CC(=O)NC1CCCCC1)C(=O)Cc1ccc(C(=O)NO)cc1F`: the IC50 was found to be 3080 nM in experiment [1]; 2040 nM in [2]; 787 nM in experiment [5]; 520 nM in [7]; 2320 nM in experiment [3]. Moreover, the outcome in experiment [6] and in experiment [8] was inactive.
`O=C(CN(C(=O)Cc1ccc(C(=O)NO)cc1)c1ccccc1)NC1CCCCC1`: the IC50 in [1] stood at 2540 nM; in experiment [2] it was 1830 nM; in [3], 2020 nM.
The term inhibition denotes how much of the control response was suppressed. Turning to `Cc1ccc(N(CC(=O)NC2CCCCC2)C(=O)Cc2ccc(C(=O)NO)cc2)cc1`, the IC50 in experiment [1] stood at 410 nM; in experiment [2] it was 360 nM; in [5], 112 nM; in experiment [7], 42 nM; in experiment [3], 230 nM. Besides, the inhibition entry in [9] was “Active”. The Activity in [10] was found to be 50%. The result in experiment [11], in [12], in experiment [6], in experiment [13] and in experiment [14] was Active. In experiment [15], this compound had an inhibition of 2.67%.
With `CCCCNC(=O)CN(C(=O)Cc1ccc(C(=O)NO)cc1)c1ccccc1`, the figures for the 50% inhibitory concentration (IC50) in experiment [1], in experiment [2] and in experiment [3] were 4030 nM, 2680 nM and 3120 nM, respectively.
For `CCc1ccccc1N(CC(=O)NC1CCCCC1)C(=O)Cc1ccc(C(=O)NO)cc1`, the results for the IC50 in experiment [1], in [2] and in [3] were 2280 nM, 1340 nM and 1430 nM, respectively.
As for `Cc1ccccc1N(CC(=O)NC1CCCCC1)C(=O)Cc1ccc(C(=O)NO)cc1`, the half-inhibitory concentration (IC50) in experiment [1] was 2520 nM; in experiment [2], 2310 nM; in experiment [3], 1510 nM.
With `O=C(CN(C(=O)Cc1ccc(C(=O)NO)cc1)c1ccccc1C(F)(F)F)NC1CCCCC1`, the IC50 in experiment [1] is 4580 nM; in experiment [2], 2090 nM; in experiment [3], 3030 nM.
For `Cc1cccc(N(CC(=O)NC2CCCCC2)C(=O)Cc2ccc(C(=O)NO)cc2)c1`, the values for the IC50 in [1], in experiment [2] and in [3] were 2590 nM, 1750 nM and 1890 nM, respectively.
For `CCc1ccccc1N(CC(=O)NC1CCCCC1)C(=O)Cc1ccc(C(=O)NO)cc1F` the same measures were 3210 nM, 1510 nM and 1440 nM.
